# Laboratory results: patent US20250026778A1 (TIUMBIO CO., LTD., priority 2021, published 2025)
# Target: T1, his-galectin-3 (Homo sapiens, UniProt P17931)
# T1 construct: purchased Abcam
# Assay: TR-FRET assay (in vitro galectin-3 binding inhibitory activity test)
# Details: Table 1; compound at 20 μM; 60 nM his-galectin-3, 15 nM biotin-ASF; read-out: % Inhibitory activity (at 20 μM)
# How it was run: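 Compound is premixed with his-galectin-3 (60 nM final), then biotin-ASF (15 nM), Tb anti-His antibody (2 nM) and streptavidin-d2 (20 nM) are added. After at least 3.5 hours at RT in HEPES/NaCl buffer with Tween 20 and BSA, TR-FRET is read at 615/665 nm. DMSO serves as the uninhibited control, ASF omission as background.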
# T1 sequence (P17931 whole entry): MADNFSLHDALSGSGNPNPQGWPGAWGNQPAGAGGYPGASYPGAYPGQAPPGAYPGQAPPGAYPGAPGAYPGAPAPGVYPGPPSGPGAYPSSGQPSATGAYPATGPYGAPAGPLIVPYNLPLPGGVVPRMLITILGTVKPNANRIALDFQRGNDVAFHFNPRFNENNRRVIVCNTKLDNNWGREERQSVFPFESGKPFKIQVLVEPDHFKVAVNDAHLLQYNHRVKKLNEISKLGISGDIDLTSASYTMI
row,SMILES,inhibition at 20 µM
1,"O=C(Cc1cccc(Br)c1)N[C@@H]1CCO[C@]12O[C@H](CO)[C@H](O)[C@H](n1cc(-c3cc(F)c(F)c(F)c3)nn1)[C@H]2O [Compound A151, 2-(3-bromophenyl)-N-((4R,5S,7R,8R,9S,10R)-8,10-dihydroxy-7-(hydroxymethyl)-9-(4-(3,4,5-trifluorophenyl)-1H-1,2,3-triazol-1-yl)-1,6-dioxaspiro[4.5]decan-4-yl)acetamide]",> 75%
2,O=C(N[C@@H]1CCO[C@]12O[C@H](CO)[C@H](O)[C@H](n1cc(-c3cc(F)c(F)c(F)c3)nn1)[C@H]2O)c1cccc(C(F)(F)F)c1 [Compound A152],50 to 75%

# Same assay, conditions: Table 2; compound at 20 μM; 60 nM his-galectin-3, 15 nM biotin-ASF; read-out: % Inhibitory activity (at 20 μM)
row,SMILES,inhibition at 20 µM
1,"OC[C@H]1O[C@]2(OCC[C@H]2n2ccnn2)[C@H](O)[C@@H](n2cc(-c3cc(F)c(F)c(F)c3)nn2)[C@H]1O [Compound A153, (4R,5S,7R,8R,9S,10R)-7-(hydroxymethyl)-4-(1H-1,2,3-triazol-1-yl)-9-(4-(3,4,5-trifluorophenyl)-1H-1,2,3-triazol-1-yl)-1,6-dioxaspiro[4.5]decane-8,10-diol]",< 25%
2,"O=C(N[C@@H]1CCO[C@]12O[C@H](CO)[C@H](O)[C@H](n1cc(-c3cc(F)c(F)c(F)c3)nn1)[C@H]2O)c1sc2ccccc2c1Cl [Compound A156, 3-chloro-N-((4R,5S,7R,8R,9S,10R)-8,10-dihydroxy-7-(hydroxymethyl)-9-(4-(3,4,5-trifluorophenyl)-1H-1,2,3-triazol-1-yl)-1,6-dioxaspiro[4.5]decan-4-yl)benzo[b]thiophene-2-carboxamide]",50 to 75%
3,"O=C(N[C@@H]1CCO[C@]12O[C@H](CO)[C@H](O)[C@H](n1cc(-c3cc(F)c(F)c(F)c3)nn1)[C@H]2O)c1csc2ccccc12 [Compound A157, N-((4R,5S,7R,8R,9S,10R)-8,10-dihydroxy-7-(hydroxymethyl)-9-(4-(3,4,5-trifluorophenyl)-1H-1,2,3-triazol-1-yl)-1,6-dioxaspiro[4.5]decan-4-yl)benzo[b]thiophene-3-carboxamide]",> 75%
4,"O=C(N[C@@H]1CCO[C@]12O[C@H](CO)[C@H](O)[C@H](n1cc(-c3cc(F)c(F)c(F)c3)nn1)[C@H]2O)c1cccc2c1CCCC2 [Compound A158, N-((4R,5S,7R,8R,9S,10R)-8,10-dihydroxy-7-(hydroxymethyl)-9-(4-(3,4,5-trifluorophenyl)-1H-1,2,3-triazol-1-yl)-1,6-dioxaspiro[4.5]decan-4-yl)-5,6,7,8-tetrahydronaphthalene-1-carboxamide]",50 to 75%
5,"O=C(N[C@@H]1CCO[C@]12O[C@H](CO)[C@H](O)[C@H](n1cc(-c3cc(F)c(F)c(F)c3)nn1)[C@H]2O)c1cc2cccc(Cl)c2s1 [Compound A159, 7-chloro-N-((4R,5S,7R,8R,9S,10R)-8,10-dihydroxy-7-(hydroxymethyl)-9-(4-(3,4,5-trifluorophenyl)-1H-1,2,3-triazol-1-yl)-1,6-dioxaspiro[4.5]decan-4-yl)benzo[b]thiophene-2-carboxamide]",50 to 75%
6,"O=C(N[C@@H]1CCO[C@]12O[C@H](CO)[C@H](O)[C@H](n1cc(-c3cc(F)c(F)c(F)c3)nn1)[C@H]2O)C1CCCc2ccccc21 (stereo partly drawn) [Compound A160, N-((4R,5S,7R,8R,9S,10R)-8,10-dihydroxy-7-(hydroxymethyl)-9-(4-(3,4,5-trifluorophenyl)-1H-1,2,3-triazol-1-yl)-1,6-dioxaspiro[4.5]decan-4-yl)-1,2,3,4-tetrahydronaphthalene-1-carboxamide]",50 to 75%
7,"O=C(N[C@@H]1CCO[C@]12O[C@H](CO)[C@H](O)[C@H](n1cc(-c3cc(F)c(F)c(F)c3)nn1)[C@H]2O)c1coc2ccccc12 [Compound A161, N-((4R,5S,7R,8R,9S,10R)-8,10-dihydroxy-7-(hydroxymethyl)-9-(4-(3,4,5-trifluorophenyl)-1H-1,2,3-triazol-1-yl)-1,6-dioxaspiro[4.5]decan-4-yl)benzofuran-3-carboxamide]",> 75%
8,"O=C(N[C@@H]1CCO[C@]12O[C@H](CO)[C@H](O)[C@H](n1cc(-c3cc(F)c(F)c(F)c3)nn1)[C@H]2O)c1cccc2c1CCC2 [Compound A162, N-((4R,5S,7R,8R,9S,10R)-8,10-dihydroxy-7-(hydroxymethyl)-9-(4-(3,4,5-trifluorophenyl)-1H-1,2,3-triazol-1-yl)-1,6-dioxaspiro[4.5]decan-4-yl)-2,3-dihydro-1H-indene-4-carboxamide]",50 to 75%
9,"O=C(N[C@@H]1CCO[C@]12O[C@H](CO)[C@H](O)[C@H](n1cc(-c3cc(F)c(F)c(F)c3)nn1)[C@H]2O)C1CCc2ccccc21 (stereo partly drawn) [Compound A163, N-((4R,5S,7R,8R,9S,10R)-8,10-dihydroxy-7-(hydroxymethyl)-9-(4-(3,4,5-trifluorophenyl)-1H-1,2,3-triazol-1-yl)-1,6-dioxaspiro[4.5]decan-4-yl)-2,3-dihydro-1H-indene-1-carboxamide]",50 to 75%
10,"O=C(N[C@@H]1CCO[C@]12O[C@H](CO)[C@H](O)[C@H](n1cc(-c3cc(F)c(F)c(F)c3)nn1)[C@H]2O)c1cccc(-c2ccccc2F)c1 [Compound A164, N-((4R,5S,7R,8R,9S,10R)-8,10-dihydroxy-7-(hydroxymethyl)-9-(4-(3,4,5-trifluorophenyl)-1H-1,2,3-triazol-1-yl)-1,6-dioxaspiro[4.5]decan-4-yl)-2′-fluoro-[1,1′-biphenyl]-3-carboxamide]",> 75%
11,"O=C(N[C@@H]1CCO[C@]12O[C@H](CO)[C@H](O)[C@H](n1cc(-c3cc(F)c(F)c(F)c3)nn1)[C@H]2O)c1cccc(-c2cccc(F)c2)c1 [Compound A165, N-((4R,5S,7R,8R,9S,10R)-8,10-dihydroxy-7-(hydroxymethyl)-9-(4-(3,4,5-trifluorophenyl)-1H-1,2,3-triazol-1-yl)-1,6-dioxaspiro[4.5]decan-4-yl)-3′-fluoro-[1,1′-biphenyl]-3-carboxamide]",50 to 75%
12,"O=C(N[C@@H]1CCO[C@]12O[C@H](CO)[C@H](O)[C@H](n1cc(-c3cc(F)c(F)c(F)c3)nn1)[C@H]2O)c1cccc(-c2cccc(Cl)c2)c1 [Compound A166, 3′-chloro-N-((4R,5S,7R,8R,9S,10R)-8,10-dihydroxy-7-(hydroxymethyl)-9-(4-(3,4,5-trifluorophenyl)-1H-1,2,3-triazol-1-yl)-1,6-dioxaspiro[4.5]decan-4-yl)-[1.1′-biphenyl]-3-carboxamide]",50 to 75%

# Same assay, conditions: Table 3, found values; compound at 20 μM; 60 nM his-galectin-3, 15 nM biotin-ASF; read-out: % Inhibitory activity (at 20 μM)
row,SMILES,inhibition at 20 µM
1,"O=C(N[C@@H]1CCO[C@]12O[C@H](CO)[C@H](O)[C@H](n1cc(-c3cc(F)c(F)c(F)c3)nn1)[C@H]2O)c1cccc2c1CCC2 [Compound A162, N-((4R,5S,7R,8R,9S,10R)-8,10-dihydroxy-7-(hydroxymethyl)-9-(4-(3,4,5-trifluorophenyl)-1H-1,2,3-triazol-1-yl)-1,6-dioxaspiro[4.5]decan-4-yl)-2,3-dihydro-1H-indene-4-carboxamide]",69.9%

# Same assay, conditions: read-out: % Inhibitory activity (at 20 μM), Table 2; compound at 20 μM; 60 nM his-galectin-3, 15 nM biotin-ASF
row,SMILES,inhibition at 20 µM
1,"OC[C@H]1O[C@]2(OCC[C@H]2n2cc(-c3ccccc3)nn2)[C@H](O)[C@@H](n2cc(-c3cc(F)c(F)c(F)c3)nn2)[C@H]1O [Compound A154, (4R,5S,7R,8R,9S,10R)-7-(hydroxymethyl)-4-(4-phenyl-1H-1,2,3-triazol-1-yl)-9-(4-(3,4,5-trifluorophenyl)-1H-1,2,3-triazol-1-yl)-1,6-dioxaspiro[4.5]decane-8,10-diol]",25 to 50%
2,"COc1cccc(CN[C@@H]2CCO[C@]23O[C@H](CO)[C@H](O)[C@H](n2cc(-c4cc(F)c(F)c(F)c4)nn2)[C@H]3O)c1 [Compound A155, (4R,5S,7R,8R,9S,10R)-7-(hydroxymethyl)-4-((3-methoxylbenzyl)amino)-9-(4-(3,4,5-trifluorophenyl)-1H-1,2,3-triazol-1-yl)-1,6-dioxaspiro[4.5]decane-8,10-diol]",< 25%
